According to patent US8877163B2, “Cycloalkyl triamine pentacarboxylate as ligands for paramagnetic metal complexes” (Kaohsiung Medical University, priority 2006, dated 2014):
Like-named read-outs stand apart in the source and are kept apart here.

What was measured:
[1] = Protonation constants by potentiometric titration (PKAS program); assay type: physicochemical; conditions: for ΣpKa: sum of the four protonation constants
Method: Firstly, the ligands (HnL) are deprotoned (L^n−) by treating them with the alkaline solution. After that, a slow addition of the acidic solution for associating the deprotonated ligand with the protons (H^+) is performed, and thus protonated organic ligands are formed. The equation for the protonation constant is shown as follows:
Please refer to FIG. 2, which is a potentiometric titration curve for CB-TTDA (the ionic strength I=0.1 M Me4NCl and the temperature T=25.0±0.1° C.) measured by an automatic titrator system. The protonation constants for the CB-TTDA are determined from the titration data with the FORTRAN computer program PKAS as shown in Table 1.

[2] = Stability constants of the gadolinium complex by potentiometric titration (BEST program); assay type: physicochemical
From the text: (§1) Presently, there are two ways for calculating the thermodynamic stability constant of a metal complex by the potentiometric titration. […] The second method is suitable for the metal complex whose disassociation rate is less than 25% at low pH (such as pH 2). Take the metal complex of the present invention for instance, since it is not able to form a complex with the ligand at a pH value around 2, the thermodynamic stability constant thereof must be calculated by the previous method. The equation for the thermodynamic stability constant is defined as follows: [formula] where M represents the metal ion, L represents the ligand, and ML represents the metal complex. […] The thermodynamic stability constants for the metal complexes with CB-TTDA are determined from the titration data with the FORTRAN computer program BEST as shown in Table 2 with the reported thermodynamic stability constants of TTDA and DTPA, which are respectively reported by Y M. Wang et al., Inorganic Chemistry, vol. 44, page 382, 2005 and by P. Caravan et al., Inorganic Chemistry, vol. 44, page 2170, 2001. The conditional stability constant (Kcond) specifies the degree of metal chelation at a given pH and is defined as follows: […] [formula] where LT is the total concentration of the uncomplexed ligand, which is defined by the following equation: […]

[3] = Stability constants of the calcium complex by potentiometric titration (BEST program); assay type: physicochemical
From the text: as §1

[4] = Stability constants of the zinc complex by potentiometric titration (BEST program); assay type: physicochemical
From the text: as §1

[5] = Stability constants of the copper complex by potentiometric titration (BEST program); assay type: physicochemical
From the text: as §1

[6] = Selectivity constant and modified selectivity constant of the gadolinium complex; assay type: physicochemical
From the text: The selectivity constant is used only for showing the difference between the gadolinium complex and other metal complexes. However, due to the coexistence of the zinc ion, the calcium ion and the copper ion in vivo, all the following factors, which are the pH value, the protonation constant for the ligand, the concentrations of the metal ions (Zn^2+, Ca^2+, Cu^2+) and the stability constants for Gd^3+, Zn^2+, Ca^2+ and Cu^2+ complexes should be considered for obtaining the selectivity constant with a new definition, called modified selectivity constant (Ksel′) and defined by the following equation: Ksel′=Ktherm(αH^−1+αCaL^−1+αCuL^−1+αZnL^−1)^−1, where αH^−1=1+K1^H[H^+]+K1^HK2^H [H^+]^++ . . .; αCaL^−1=1+KCaL[Ca^2+]; αCuL^−1=1+KCuL[Cu^2+]; αZnL^−1=1+KZnL[Zn^2+]; and thus the modified selectivity constant of the gadolinium complex at the biological pH (7.4) could be calculated by the mentioned equation (the value of the conditional stability constant is calculated previously, and the concentrations of the zinc, the calcium and the copper ions are 50 μM, […] and 1 μm, respectively).

[7] = reported values; cited from earlier work
[8] = I = 0.1 M Me4NCl, T = 25.0 ± 0.1° C.; reported values; cited from earlier work
[9] = I = 0.1 M Me4NCl, T = 25.0 ± 0.1° C.; reported values; cited from earlier work; remark: listed apart in the source
[10] = I = 0.1 M Me4NCl, T = 25.0 ± 0.1° C.; reported values; cited from earlier work; remark: listed apart in the source
[11] = I = 0.1 M Me4NCl, T = 25.0 ± 0.1° C.; reported values; cited from earlier work; remark: listed apart in the source
human serum albumin = human serum albumin (Homo sapiens, UniProt P02768); conditions: cited from earlier work
[12] = Dy (III)-induced 17O-NMR water shift (d.i.s.), number of inner space water molecules; assay type: physicochemical
From the text: From measuring the d.i.s. (Dy (III)-induced ^17O-NMR water shifts) of the ^17O nuclides in water induced by Dy (III) via ^17O-NMR and graphing the concentration of Dy (III) complexes with respect to the d.i.s., a linear relationship is found, as shown in the following equation: d.i.s.=qΔ[Dy(ligand)n(H2O)q/[H2O]
The slope is qΔ/[H2O] with q being the number of inner space water molecule. […] Because the Dy (III) hydrate is able to combine with 8 water molecules and is in direct proportion to the slope, the value of q (q=0.9) for [Dy(CB-TTDA)]^2− is obtained thereby.

[13] = cited from earlier work
[14] = incubation with zinc (II) for three days; 20 MHz, 37.0 ± 0.1° C.; reported by S. Laurent et al; cited from earlier work
[15] = 20 MHz, 37.0 ± 0.1° C., pH 7.5 ± 0.1; Y. M. Wang et al.; cited from earlier work
[16] = I = 0.1 M Me4NCl, T = 25.0 ± 0.1° C.

human serum albumin, sequence (P02768 25-609): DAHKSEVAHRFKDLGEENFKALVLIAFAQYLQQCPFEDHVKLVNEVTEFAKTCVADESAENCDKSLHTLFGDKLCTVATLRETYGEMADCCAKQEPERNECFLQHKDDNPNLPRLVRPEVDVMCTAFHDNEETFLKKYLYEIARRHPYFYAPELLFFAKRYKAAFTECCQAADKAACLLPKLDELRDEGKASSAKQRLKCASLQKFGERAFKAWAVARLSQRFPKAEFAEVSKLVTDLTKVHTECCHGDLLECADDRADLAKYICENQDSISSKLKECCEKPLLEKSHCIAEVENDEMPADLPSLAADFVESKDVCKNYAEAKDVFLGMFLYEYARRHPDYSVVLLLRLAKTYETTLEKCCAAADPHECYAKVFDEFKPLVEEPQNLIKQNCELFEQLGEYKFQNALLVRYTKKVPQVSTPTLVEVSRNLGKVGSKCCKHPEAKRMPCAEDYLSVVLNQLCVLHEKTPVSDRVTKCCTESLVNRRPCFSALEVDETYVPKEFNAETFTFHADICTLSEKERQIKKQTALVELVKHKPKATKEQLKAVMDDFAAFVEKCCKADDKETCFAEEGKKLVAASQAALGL

O=C(O)CN(CCN(CC(=O)O)CC1(CN(CC(=O)O)CC(=O)O)CCC1)CC(=O)O [CB-TTDA, 6-carboxymethyl-3-{{[1-(N,N-dicarboxymethyl)-2-aminomethyl]-cyclobut-1-yl}-methyl}-3,6-diazaoctanedioic acid]
log Kn^H [H4L]/[H3L][H] [1, 16]: 3.11(0.04) | log Kn^H [HL]/[L][H] [1, 16]: 11.08(0.03) | ΣpKa [1]: 28.59 | log KML [GdL]/[Gd][L] (thermodynamic stability constant) [2]: 20.28(0.03) | pGd [2]: 15.82 | pCa [3]: 4.09 | log KCaHL [3, 16]: 6.24(0.02) | log KML [CaL]/[Ca][L] [3, 16]: 9.52(0.02) | log KCaL (pH = 7.4) (conditional stability constant) [3]: 4.06 | pZn [4]: 12.41 | log KML [ZnL]/[Zn][L] [4, 16]: 16.06(0.03) | log KZnHL [4, 16]: 8.13(0.04) | log KZnL (pH = 7.4) (conditional stability constant) [4]: 10.60 | pCu [5]: 13.26 | log KCuHL [5, 16]: 5.29(0.03) | log KML [CuL]/[Cu][L] [5, 16]: 17.71(0.02) | log KCuL (pH = 7.4) (conditional stability constant) [5]: 12.25 | log K(Gd/Ca) (selectivity constant) [6]: 11.76 | log K(Gd/Cu) (selectivity constant) [6]: 2.57 | log K(Gd/Zn) (selectivity constant) [6]: 4.22

O=C(O)CN(CCN(CC(=O)O)CC(=O)O)CCN(CC(=O)O)CC(=O)O [DTPA]
ΣpKa [1]: 26.01 | pGd [2]: 19.14 | pCa [3]: 7.46 | log KCaL (pH = 7.4) (conditional stability constant) [3]: 6.43 | pZn [4]: 15.39 | log KZnL (pH = 7.4) (conditional stability constant) [4]: 14.38 | pCu [5]: 18.06 | log KCuL (pH = 7.4) (conditional stability constant) [5]: 17.00 | log K(Gd/Ca) (selectivity constant) [6]: 11.71 | log K(Gd/Cu) (selectivity constant) [6]: 1.08 | log K(Gd/Zn) (selectivity constant) [6]: 3.76 | log Kn^H [H2L]/[HL][H] [7]: 8.60 | log Kn^H [H3L]/[H2L][H] [7]: 4.28 | log Kn^H [H4L]/[H3L][H] [7]: 2.64 | log Kn^H [HL]/[L][H] [7]: 10.49 | log KML [GdL]/[Gd][L] (thermodynamic stability constant) [8]: 22.46 | log KCaHL [9]: 6.11 | log KML [CaL]/[Ca][L] [9]: 10.75 | log KML [ZnL]/[Zn][L] [10]: 18.70 | log KZnHL [10]: 5.60 | log KCuHL [11]: 4.81 | log KML [CuL]/[Cu][L] [11]: 21.38

O=C([O-])CN(CCN(CC(=O)[O-])C[C@H](COP(=O)([O-])OC1CCC(c2ccccc2)(c2ccccc2)CC1)N(CC(=O)[O-])CC(=O)[O-])CC(=O)[O-].[Gd+3].[H+].[H+].[H+] [MS-325]
bound relaxivity r1^b (human serum albumin; bound to HSA): 47.0 mM⁻¹ s⁻¹ | relaxivity for the combination with human serum albumin (human serum albumin; bound to human serum albumin): 47.0 mM⁻¹ s⁻¹ | binding constant with HSA, KA (human serum albumin): 3.0±0.2×10^4 M^−1

O=C(O)CN(CCCN(CC(=O)O)CC(=O)O)CCN(CC(=O)O)CC(=O)O [TTDA, 3,6,10-tri-(carboxymethyl)-3,6,10-triazadodecanedioic acid]
ΣpKa [1]: 27.44 | pGd [2]: 15.25 | pCa [3]: 6.28 | log KCaL (pH = 7.4) (conditional stability constant) [3]: 4.42 | pZn [4]: 12.86 | log KZnL (pH = 7.4) (conditional stability constant) [4]: 11.32 | pCu [5]: 13.06 | log KCuL (pH = 7.4) (conditional stability constant) [5]: 12.06 | log K(Gd/Ca) (selectivity constant) [6]: 9.83 | log K(Gd/Cu) (selectivity constant) [6]: 2.19 | log K(Gd/Zn) (selectivity constant) [6]: 2.93 | log Kn^H [H2L]/[HL][H] [7]: 8.92 | log Kn^H [H3L]/[H2L][H] [7]: 5.12 | log Kn^H [H4L]/[H3L][H] [7]: 2.80 | log Kn^H [HL]/[L][H] [7]: 10.60 | log KML [GdL]/[Gd][L] (thermodynamic stability constant) [8]: 18.96 | log KCaHL [9]: 8.20 | log KML [CaL]/[Ca][L] [9]: 9.13 | log KML [ZnL]/[Zn][L] [10]: 16.03 | log KZnHL [10]: 7.80 | log KCuHL [11]: 5.69 | log KML [CuL]/[Cu][L] [11]: 16.77

O=C([O-])CN(CC(=O)[O-])CC1(CN(CCN(CC(=O)O)CC(=O)O)CC(=O)O)CCC1.[Ca+2] [[Ca(CB-TTDA)]^3−]
log KML [CaL]/[Ca][L] [3, 16]: 9.52

O=C([O-])CN(CCN(CC(=O)[O-])CC1(CN(CC(=O)[O-])CC(=O)[O-])CCC1)CC(=O)[O-].[Cu+2] [[Cu(CB-TTDA)]^3−]
log KML [CuL]/[Cu][L] [5, 16]: 17.71

O=C([O-])CN(CCN(CC(=O)[O-])CC1(CN(CC(=O)[O-])CC(=O)[O-])CCC1)CC(=O)[O-].[Dy+3] [[Dy(CB-TTDA)]^2−]
slope of d.i.s. versus concentration of Dy (III) complex ([12]; 17O-NMR): −48.2 ppm/mM | q, number of inner space water molecule ([12]; from slope relative to Dy (III) hydrate with 8 water molecules): 0.9

CC1(N(CC(=O)[O-])CC(=O)[O-])CN(CC(=O)[O-])CCN(CC(=O)[O-])C1.[Gd+3] [[Gd(AAZTA)]^−]
relaxivity ([13]; 20 MHz and 298 K): 7.1 mM⁻¹ s⁻¹ | relaxivity calculated by simulating the NMRD profile ([13]; τr increased to 30 ns): 100 mM⁻¹ s⁻¹

CNC[C@H](O)[C@@H](O)[C@H](O)[C@H](O)CO.CNC[C@H](O)[C@@H](O)[C@H](O)[C@H](O)CO.O=C([O-])CN(CCN(CC(=O)[O-])CC(=O)O)CCN(CC(=O)O)C(COCc1ccccc1)C(=O)[O-].[Gd+3] (stereo not drawn) [[Gd(BOPTA)]^2−, gadobenate dimeglumine]
relaxivity ([13]; Fulvio U. et al., 1995): 4.39 mM⁻¹ s⁻¹

CNC(=O)CN(CCN(CCN(CC(=O)[O-])CC(=O)NC)CC(=O)[O-])CC(=O)[O-].[Gd+3] [[Gd(DTPA-BMA)], bis-methylamide gadodiamide injection]
R1^p (t = 3days)/R1^p (t = 0 days) [14]: 9%

O=C([O-])CN(CCCN(CC(=O)[O-])CC(=O)[O-])CCN(CC(=O)[O-])CC(=O)[O-].[Gd+3] [[Gd(TTDA)]^2−]
calculated conditional stability constant of the gadolinium complex [2]: 14.25 | relaxivity r1 [15]: 3.85 ± 0.03 mM⁻¹ s⁻¹

O=C([O-])CN(CC(=O)[O-])CC1(CN(CCN(CC(=O)O)CC(=O)O)CC(=O)O)CCC1.[Zn+2] [[Zn(CB-TTDA)]^3−]
log KML [ZnL]/[Zn][L] [4, 16]: 16.06
